# Assays:
# [1] = system: patients with malignant tumors; experiment: Study S.241.2.101: cisplatin-induced nausea and vomiting; assay type: in vivo, human; settings: IV 8 mg TID
# Procedure: The effect of cilansetron on nausea and vomiting has been studied in 2 clinical studies in cancer patients. Both studies were randomized, singleblind, positive-controlled, parallel-group, pilot studies in male and female patients with malignant tumors, to investigate the effect of cilansetron on cytostatic-induced nausea and vomiting. In both studies, patients were on their first cycle of chemotherapy and were being treated with cisplatin (275 mg/m2 as a single dose in Study S.24 1.2.10 1 and […] for 5 days in Study K.24 1 S O 17). Patients in Study S.24 1.2.10 1 were aged 40-74 years (ITT population=16) and patients in Study K.24 1 S O 17 were aged 39-74 years (ITT population=19). In both studies, patients were randomized to receive either […] or IV ondansetron 8 mg TID for 1 day (Study S.241.2.101) or 5 days (Study K.2415017), corresponding to the day(s) of their cisplatin administration. If nausea and vomiting were completely controlled on a treatment day, the second and/or third doses of cilansetron or ondansetron could be omitted on that day. The primary efficacy parameter in both studies was the combination of the occurrence of vomiting and the severity of nausea, with a responder being defined as a patient with no vomiting and not more than mild nausea during the treatment day(s). […]
# CYP3A5 = settings: hepatocytes
# clinical [2] = settings: male, human, in vivo
# Procedure: The single- and multiple-dose pharmacokinetics of cilansetron 8 mg administered intravenously have been studied in a randomized, double-blind, placebo controlled, parallel group study in 12 male subjects (10 subjects received cilansetron 8 mg and 2 received placebo, administered as a 30-minute infusion). […] Doses on pharmacokinetic days were administered under fasted conditions. […] Renal elimination was again observed to be negligible (≦1% of dose).
# clinical [3] = assay type: in vivo, human; settings: both sexes, human, in vivo
# Procedure: (§1) Various covariates were screened during development of the population pharmacokinetic model, including age, height, weight, body surface area, body mass index, race, gender, smoking status, serum creatinine levels, serum creatinine clearance, total bilirubin levels, cilansetron dose, and concomitant medication usage. Some efficacy and safety parameters were also evaluated in this population analysis using correlation analyses. Efficacy parameters evaluated included overall relief of IBS symptoms (Responder or Non-Responder), intensity of abdominal pain, number of stools and stool consistency, symptoms of abdominal and rectal discomfort (straining, urgency, feeling of incomplete defecation, passage of mucus, bloating, and feeling of abdominal distension), and upper GI symptoms at Visit 5 (vomiting, heartburn, early satiety, postprandial fullness, sensation of prolonged digestion, and nausea). Safety parameters evaluated included the top ten most frequently observed adverse events (constipation, flatulence, nausea, abdominal pain, headache, dyspepsia, infection, gastrointestinal disorders, anorexia, and diarrhea).
# (§2) A statistically significant negative correlation was found between exposure (AUC and Cmax at steady state) and some efficacy parameters including change in stool consistency (adjusted for baseline) and the experience of straining. Patients with higher exposure to cilansetron and/or its 4-hydroxy metabolites were more likely to have lower stool consistency scores (a tendency for harder stools) than patients with lower exposure. […] In addition, patients with higher exposure to cilansetron were more likely to experience straining.
# [4] = system: non-constipated IBS patients; experiment: clinical; assay type: in vivo, human; settings: linear regression
# Procedure: as §1, §2
# clinical [5] = settings: human, in vivo, po
# Procedure: Two randomized, double-blind, placebo controlled, rising dose, crossover studies evaluated the single-dose pharmacokinetics of oral cilansetron over a 4 mg to 64 mg dose range. In one study, 24 male subjects (aged 21-36 years) received, at intervals of […], single oral doses of 4, 8, and 16 mg cilansetron in ascending order and a randomized placebo. In the other study, 24 male subjects received, at intervals of ≧1 week, single oral doses of 16, 32, and 64 mg cilansetron in ascending order and a randomized placebo. All doses were administered under fasted conditions. […] Renal excretion of cilansetron was negligible across all doses, with undetectable or very low amounts (<1% of the dose) excreted unchanged in urine.
# Data for the evaluation of dose proportionality of oral cilansetron is available from three studies which have evaluated the pharmacokinetics of single doses over a 2 mg to 64 mg dose range. Two randomized, double-blind, placebo controlled, rising dose, crossover studies, in 24 male subjects each, evaluated the single dose pharmacokinetics of oral cilansetron (capsules) over a 4-16 mg and 16-64 mg dose range, respectively. In each study, subjects received, at intervals of ≧1 week, single oral doses of cilansetron in ascending order and a randomized placebo. All doses were administered under fasted conditions. A third open-label, randomized, parallel-group study in 36 male and female subjects, evaluated the single dose pharmacokinetics of a cilansetron 2 mg tablet administered under fed conditions. FIG. 16 to FIG. 19 present box plots of cilansetron AUC(0-inf) and Cmax from these three studies (males only), and corresponding dose-normalized values (normalized to a 1 mg dose). […] Table 2.7.2.3.14 presents descriptive statistics of cilansetron dose-normalized AUC and Cmax in these studies, and the results of statistical comparisons between doses.
smiles,measurement,setting,value
"Cc1nccn1C[C@H]1CCc2c(c3cccc4c3n2CCC4)C1=O [Cilansetron, (R)-(−)-4,5,6,8,9,10-hexahydro-10-[(2-methyl-1H-imidazol-1-yl)methyl]-11H-pyrido-[3,2,1-jk]-carbazol-11-one]",Response rate,[1],16.7%
same,CYP3A5 mRNA,CYP3A5,doubled
same,Intersubject % CV for AUC,clinical [2],31-34%
same,Intrasubject % CV,clinical [2],18%
same,Renal elimination,clinical [2],≤ 1 % of dose
same,% Dose (urine),clinical [2]; iv,0.44 (70) %
same,Linearity Ratio,clinical [2]; iv,118%
same,DN-AUC,"clinical [2]; iv, 8 mg",22.8 (31) ng · h/mL
same,AUC,"clinical [2]; iv, 8 mg, AUC",182 ng·h/mL
same,clearance,"clinical [2]; iv, 8 mg, CL",792 mL/min
same,CL renal,"clinical [2]; iv, 8 mg, CLr",3.29 mL/min
same,clearance,"clinical [2]; iv, 8 mg, Systemic plasma clearance",800 mL/min
same,half-life,"clinical [2]; iv, 8 mg, T½",1.7 h
same,AUC,clinical [3],360 ng·h/mL
same,Cmax,clinical [3],65 ng/mL
same,Decrease in stool consistency score per 600 ng*h/mL AUC or 100 ng/mL Cmax,[4],0.5 point
same,CL/F,clinical [5]; 4 mg,3864 (69) mL/min
same,CL/F,clinical [5]; 8 mg,3851 (103) mL/min
same,DN-AUC(0-inf) ratio 8 mg/4 mg,clinical [5]; male,109%
same,DN-AUC(0-inf) ratio 16 mg/4 mg,clinical [5]; male,117%
same,DN-AUC(0-inf) ratio 16 mg/8 mg,clinical [5]; male,108%
same,DN-AUC(0-last) ratio 8 mg/4 mg,clinical [5]; male,120%
same,DN-AUC(0-last) ratio 16 mg/4 mg,clinical [5]; male,132%
same,DN-AUC(0-last) ratio 16 mg/8 mg,clinical [5]; male,110%
same,DN-Cmax ratio 8 mg/4 mg,clinical [5]; male,115%
same,DN-Cmax ratio 16 mg/4 mg,clinical [5]; male,122%
same,DN-Cmax ratio 16 mg/8 mg,clinical [5]; male,107%
same,Dose excreted unchanged in urine,clinical [5]; male,< 1%
same,Tmax,clinical [5]; male,1 to 1.25 h
same,half-life,clinical [5]; male,1.2 to 1.6 h
same,AUC(0-inf),"clinical [5]; male, 4 mg",26.7 ng·h/mL
same,AUC(0-t),"clinical [5]; male, 4 mg",23.2 ng·h/mL
same,Cmax,"clinical [5]; male, 4 mg",9.88 ng/mL
same,Tmax,"clinical [5]; male, 4 mg",1.25 h
same,Vd/F,"clinical [5]; male, 4 mg",522 L
same,half-life,"clinical [5]; male, 4 mg",1.56 h
same,AUC(0-inf),"clinical [5]; male, 8 mg",59.4 ng·h/mL
same,AUC(0-t),"clinical [5]; male, 8 mg",55.5 ng·h/mL
same,Cmax,"clinical [5]; male, 8 mg",22.1 ng/mL
same,Tmax,"clinical [5]; male, 8 mg",1 h
same,Vd/F,"clinical [5]; male, 8 mg",472 L
same,half-life,"clinical [5]; male, 8 mg",1.47 h
same,Tmax,"clinical [5]; male, 16 mg",1 h

# From US20090176817A1, “Method of Treatment of Diarrhea-Predominant Irritable Bowel Syndrome in a Subject” (priority 2005, published 2009)
